According to ChEMBL document CHEMBL5385895, “Design, synthesis, biological evaluation of urea substituted 1,2,5-oxadiazole-3-carboximidamides as novel indoleamine 2,3-dioxygenase-1 (IDO1) inhibitors” (Eur J Med Chem, 2023):
pIC50: −log10 of the molar value. Calls of active or inactive are those of the source. The calls are words filed in the database; no cut-off is given here.

Assays:
[1] = AUC (0 to t) in Sprague-Dawley rat at 5 mg/kg, iv by LC-MS/MS analysis; type: ADME, organism-based; design: dose 5 mg/kg, route iv; details: in vivo
[2] = Toxicity in C57BL/6 mouse implanted with mouse LLC cells assessed as pathological changes in kidney at 100 to 200 mg/kg, po bid treated for 21 days by H and E staining assay; type: organism-based, Lewis lung carcinoma; details: in vivo, 504 h, dose 100-200 mg/kg, time 21 day
[3] = Half life in Sprague-Dawley rat at 5 mg/kg, iv by LC-MS/MS analysis; type: ADME, organism-based; details: in vivo
[4] = Cmax in Sprague-Dawley rat at 5 mg/kg, iv by LC-MS/MS analysis; type: ADME, organism-based; design: dose 5 mg/kg, route iv; details: in vivo
[5] = molecular target: T1, Indoleamine 2,3-dioxygenase 1 (Homo sapiens, UniProt P14902); test: Inhibition of IDO1 in IFN-gamma-induced human HeLa cells assessed as reduction in N-formylkynurenine formation using L-tryptophan as substrate preincubated for 24 hrs followed by substrate addition and measured after 30 mins by SpectraMax microplate reader analysis; type: cell-based
[6] = Cmax in Sprague-Dawley rat at 25 mg/kg, po by LC-MS/MS analysis; type: ADME, organism-based; design: dose 25 mg/kg, route po; details: in vivo
[7] = Plasma clearance in Sprague-Dawley rat at 5 mg/kg, iv by LC-MS/MS analysis; type: ADME, organism-based
[8] = molecular target: T2, Indoleamine 2,3-dioxygenase 2 (Homo sapiens) (UniProt Q6ZQW0); test: Inhibition of human recombinant IDO2 assessed as reduction in N-formylkynurenine formation using L-tryptophan as substrate at 1 uM preincubated for 30 mins followed by substrate addition and measured after 20 mins by SpectraMax microplate reader analysis; details: time 50.0 min
T2 sequence (whole entry): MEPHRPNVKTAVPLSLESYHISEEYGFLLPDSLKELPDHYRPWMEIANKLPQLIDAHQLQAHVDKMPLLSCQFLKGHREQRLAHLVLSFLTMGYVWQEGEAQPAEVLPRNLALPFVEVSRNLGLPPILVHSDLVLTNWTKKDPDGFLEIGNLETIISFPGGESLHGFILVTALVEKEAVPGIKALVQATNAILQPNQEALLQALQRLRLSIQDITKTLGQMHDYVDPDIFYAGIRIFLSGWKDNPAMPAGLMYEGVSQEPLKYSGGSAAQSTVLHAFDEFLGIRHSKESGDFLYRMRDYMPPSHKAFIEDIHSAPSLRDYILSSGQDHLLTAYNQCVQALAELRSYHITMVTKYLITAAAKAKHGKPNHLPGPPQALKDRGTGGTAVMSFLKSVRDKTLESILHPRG

cells = details: Mus musculus, Lung cancer cell line, 24 h
[9] = Volume of distribution in Sprague-Dawley rat at 5 mg/kg, iv by LC-MS/MS analysis; type: ADME, organism-based; details: in vivo
[10] = molecular target: Tryptophan 2,3-dioxygenase (Homo sapiens) (UniProt P48775); test: Inhibition of human recombinant TDO assessed as reduction in N-formylkynurenine formation using L-tryptophan as substrate at 1 uM preincubated for 30 mins followed by substrate addition and measured after 20 mins by SpectraMax microplate reader analysis; details: time 50.0 min
[11] = Anti-tumor efficacy against mouse LLC cells implanted in C57BL/6 mouse assessed as tumor growth inhibition at 100 mg/kg, po bid treated for 21 days relative to control; type: functional; details: Lewis lung carcinoma, 504 h, time 21 day, read-out: TGI
CT26 = test: cells; details: Mus musculus, CT26, 24 h
HeLa = test: cells; details: Homo sapiens, 24 h
in vitro = details: dog, MDCK
[12] = Toxicity in C57BL/6 mouse implanted with mouse LLC cells assessed as liver function by measuring change in AST level at 100 to 200 mg/kg, po bid treated for 21 days […]; type: organism-based, Lewis lung carcinoma; details: in vivo, 504 h, dose 100-200 mg/kg, time 21 day
[13] = Toxicity in C57BL/6 mouse implanted with mouse LLC cells assessed as liver function by measuring change in total protein level at 100 to 200 mg/kg, po bid treated for 21 days […]; type: organism-based, Lewis lung carcinoma; details: in vivo, 504 h, dose 100-200 mg/kg, time 21 day
HCT-116 = test: cells; details: Homo sapiens, HCT-116, 24 h
[14] = Apparent permeability of the compound across basolateral to apical side in dog MDCKII cells measured for 2 hrs by LC-MS/MS analysis; type: ADME, cell-based, Canis lupus familiaris, MDCK-II; details: MDCK
[15] = Apparent permeability of the compound across apical to basolateral side in dog MDCK-II cells measured for 2 hrs by LC-MS/MS analysis; type: ADME, cell-based, Canis lupus familiaris
[16] = Anti-tumor efficacy against mouse LLC cells implanted in C57BL/6 mouse assessed as tumor growth inhibition at 200 mg/kg, po bid treated for 21 days relative to control; type: functional; details: Lewis lung carcinoma, 504 h, time 21 day, read-out: TGI
[17] = AUC (0 to infinity) in Sprague-Dawley rat at 5 mg/kg, iv by LC-MS/MS analysis; type: ADME, organism-based; design: dose 5 mg/kg, route iv; details: in vivo
[18] = Toxicity in C57BL/6 mouse implanted with mouse LLC cells assessed as liver function by measuring change in ALT level at 100 to 200 mg/kg, po bid treated for 21 days […]; type: organism-based, Lewis lung carcinoma; details: in vivo, 504 h, dose 100-200 mg/kg, time 21 day
[19] = Toxicity in C57BL/6 mouse implanted with mouse LLC cells assessed as kidney function by measuring change in BUN level at 100 to 200 mg/kg, po bid treated for 21 days […]; type: organism-based, Lewis lung carcinoma; details: in vivo, 504 h, dose 100-200 mg/kg, time 21 day
[20] = Toxicity in C57BL/6 mouse implanted with mouse LLC cells assessed as mortality at 100 to 200 mg/kg, po bid treated for 21 days; type: organism-based, Lewis lung carcinoma; details: in vivo, 504 h, dose 100-200 mg/kg, time 21 day
[21] = AUC (0 to t) in Sprague-Dawley rat at 25 mg/kg, po by LC-MS/MS analysis; type: ADME, organism-based; design: dose 25 mg/kg, route po; details: in vivo
[22] = AUC (0 to infinity) in Sprague-Dawley rat at 25 mg/kg, po by LC-MS/MS analysis; type: ADME, organism-based; design: dose 25 mg/kg, route po; details: in vivo
[23] = molecular target: T1, Indoleamine 2,3-dioxygenase 1; test: Inhibition of human recombinant IDO1 assessed as reduction in N-formylkynurenine formation using L-tryptophan as substrate preincubated for 30 mins followed by substrate addition and measured after 20 mins by SpectraMax microplate reader analysis
[24] = Half life in Sprague-Dawley rat at 25 mg/kg, po by LC-MS/MS analysis; type: ADME, organism-based; details: in vivo
[25] = Toxicity in C57BL/6 mouse implanted with mouse LLC cells assessed as change in body weight at 100 to 200 mg/kg, po bid treated for 21 days; type: organism-based, Lewis lung carcinoma; details: in vivo, 504 h, dose 100-200 mg/kg, time 21 day
[26] = Tmax in Sprague-Dawley rat at 25 mg/kg, po by LC-MS/MS analysis; type: ADME, organism-based; details: in vivo
[27] = Toxicity in C57BL/6 mouse implanted with mouse LLC cells assessed as pathological changes in liver at 100 to 200 mg/kg, po bid treated for 21 days by H and E staining assay; type: organism-based, Lewis lung carcinoma; details: in vivo, 504 h, dose 100-200 mg/kg, time 21 day
[28] = Toxicity in C57BL/6 mouse implanted with mouse LLC cells assessed as pathological changes in spleen at 100 to 200 mg/kg, po bid treated for 21 days by H and E staining assay; type: organism-based, Lewis lung carcinoma; details: in vivo, 504 h, dose 100-200 mg/kg, time 21 day
[29] = Oral bioavailability in Sprague-Dawley rat at 25 mg/kg by LC-MS/MS analysis; type: ADME, organism-based; details: in vivo
[30] = Toxicity in C57BL/6 mouse implanted with mouse LLC cells assessed as pathological changes in lung at 100 to 200 mg/kg, po bid treated for 21 days by H and E staining assay; type: organism-based, Lewis lung carcinoma; details: in vivo, 504 h, dose 100-200 mg/kg, time 21 day
[31] = Toxicity in C57BL/6 mouse implanted with mouse LLC cells assessed as pathological changes in heart at 100 to 200 mg/kg, po bid treated for 21 days by H and E staining assay; type: organism-based, Lewis lung carcinoma; details: in vivo, 504 h, dose 100-200 mg/kg, time 21 day
[32] = Tmax in Sprague-Dawley rat at 5 mg/kg, iv by LC-MS/MS analysis; type: ADME, organism-based; details: in vivo

T1 sequence (P14902 whole entry): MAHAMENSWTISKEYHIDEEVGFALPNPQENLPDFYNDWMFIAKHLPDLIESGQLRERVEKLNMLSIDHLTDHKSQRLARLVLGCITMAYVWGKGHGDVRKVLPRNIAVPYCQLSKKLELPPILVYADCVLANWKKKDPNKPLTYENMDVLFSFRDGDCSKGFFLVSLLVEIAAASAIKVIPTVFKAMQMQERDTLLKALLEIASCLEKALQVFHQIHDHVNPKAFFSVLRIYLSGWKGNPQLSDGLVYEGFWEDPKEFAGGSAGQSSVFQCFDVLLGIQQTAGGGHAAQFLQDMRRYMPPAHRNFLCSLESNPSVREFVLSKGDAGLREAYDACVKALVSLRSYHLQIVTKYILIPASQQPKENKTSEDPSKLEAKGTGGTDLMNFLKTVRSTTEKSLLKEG
Chain of Tryptophan 2,3-dioxygenase (Homo sapiens) (P48775 whole entry, looked up): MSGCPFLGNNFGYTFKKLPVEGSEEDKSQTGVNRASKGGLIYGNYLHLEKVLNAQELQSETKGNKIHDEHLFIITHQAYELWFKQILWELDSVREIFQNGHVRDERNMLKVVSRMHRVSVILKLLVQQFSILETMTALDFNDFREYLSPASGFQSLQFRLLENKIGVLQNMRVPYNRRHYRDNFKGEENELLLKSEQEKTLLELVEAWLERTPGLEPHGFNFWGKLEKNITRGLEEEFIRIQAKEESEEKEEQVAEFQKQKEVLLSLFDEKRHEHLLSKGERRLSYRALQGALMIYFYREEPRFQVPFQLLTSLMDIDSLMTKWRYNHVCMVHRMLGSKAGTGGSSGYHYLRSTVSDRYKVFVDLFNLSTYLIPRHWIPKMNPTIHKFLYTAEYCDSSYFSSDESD

## CCNC(=O)Nc1nonc1/C(=N/O)Nc1ccc(F)c(Br)c1
[1]
  AUC(0-t): 2.64 µg·h/mL
[2]
  Activity: Non-Toxic
[3]
  half-life: 1.62 h
[4]
  Cmax: 10 µg/mL
[5]
  pIC50: 7.75
[6]
  Cmax: 1.69 µg/mL
[7]
  clearance: 1.94 L/h/kg
[8]
  inhibition: inactive
cells
  pIC50: < 4.30
[9]
  Vd: 4.01 L/kg
[10]
  inhibition: inactive
[11]
  inhibition in vivo at 100 mg/kg: 41.5%
CT26
  pIC50: 4.46
HeLa
  pIC50: 4.34
In vitro
  efflux ratio at 2 h: 0.58
[12]
  Activity: Non-Toxic
[13]
  Activity: Non-Toxic
HCT-116
  pIC50: 4.71
[14]
  Papp B→A at 2 h: 226 nm/s
[15]
  Papp A→B at 2 h: 386 nm/s
[16]
  inhibition in vivo at 200 mg/kg: 53.1%
[17]
  AUC(0-inf): 2.69 µg·h/mL
[18]
  Activity: Non-Toxic
[19]
  Activity: Non-Toxic
[20]
  Activity: Non-Toxic
[21]
  AUC(0-t): 2.22 µg·h/mL
[22]
  AUC(0-inf): 2.25 µg·h/mL
[23]
  pIC50: 7.17
[24]
  half-life: 1.31 h
[25]
  Activity: Non-Toxic
[26]
  Tmax: 1 h
[27]
  Activity: Non-Toxic
[28]
  Activity: Non-Toxic
[29]
  bioavailability: 16.8%
[30]
  Activity: Non-Toxic
[31]
  Activity: Non-Toxic
[32]
  Tmax: 1.98 min
